Measured values as given in patent publication EP4790066A1, “GLP-1R/GIPR/GCGR TRIPLE AGONIST ANALOGUE AND USE THEREOF” (Shenzhen Bay Laboratory, priority 2023, dated 2025).
*1 amine or outer side, *2 acyl side, *3 side chain or, on linkers, in order; H or OH if unused. Where a SMILES comes first, the peptide text is derived from it. Bridges are numbered along the chain shown (N, C = ends). [ ]: non-standard residue; d: D form. X1 = O=C(O)CCCCCCCCCCCCCCCCCCC(=O)N[C@@H](CCCCNC(=O)COCCOCCNC(=O)COCCOCCNC(=O)CCC(=O)N(CCNC(=O)C[*:1])CCNC(=O)C[*:2])C(=O)O; αMeL = CC(C)C[C@](C)(N)C(=O)O; Aib = CC(C)(N)C(=O)O

What was measured:
Format in all cases: cell-based
GCGR = target: T1, GCGR (Homo sapiens, UniProt P47871); test: CreLuc method (CRE-luciferase reporter), 293HEK/pGM-CREB-L-Luc/GCGR pool; conditions: 6 h incubation, read-out: EC50 (pM) for each receptor GCGR
T1 construct: expressed in transfected cells
T1 sequence (P47871 26-477, species assumed): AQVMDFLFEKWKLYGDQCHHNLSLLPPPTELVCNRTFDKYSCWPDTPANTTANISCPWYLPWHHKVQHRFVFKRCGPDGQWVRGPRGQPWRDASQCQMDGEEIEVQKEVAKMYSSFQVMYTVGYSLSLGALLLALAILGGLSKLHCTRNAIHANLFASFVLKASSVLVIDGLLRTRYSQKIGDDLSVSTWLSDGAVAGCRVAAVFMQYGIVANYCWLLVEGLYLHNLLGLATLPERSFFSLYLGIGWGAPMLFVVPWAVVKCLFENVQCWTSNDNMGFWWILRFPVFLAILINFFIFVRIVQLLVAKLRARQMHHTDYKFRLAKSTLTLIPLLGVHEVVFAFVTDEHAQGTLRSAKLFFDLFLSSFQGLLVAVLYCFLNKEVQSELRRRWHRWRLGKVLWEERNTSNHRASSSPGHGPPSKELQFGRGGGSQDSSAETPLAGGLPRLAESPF
Description: (§1) 1. Insulinotropic analogues can bind to the target receptor on the cell membrane, activate the cAMP response element (CRE), and initiate the expression of downstream luciferase. The expression level is positively correlated with the biological activity of the analogue being tested. After activation, luciferase substrate is added for chemiluminescence detection, and the luminescence intensity is determined to characterize the biological activity of the test compounds. Therefore, the target peptide derivatives (or polypeptide derivatives, i.e., TG1-TG94) prepared in Example 1 and Example 2 can be tested by the CreLuc method. The specific steps are as follows: The stably transfected cell lines HEK293/pGM-CREB-L-Luc/GLP-1R pool, HEK293/pGM-CREB-L-Luc/GIPR pool, and 293HEK/pGM-CREB-L-Luc/GCGR pool were constructed. […] The corresponding test cells were digested (1 min), dispersed by pipetting, and centrifuged (1000 rpm, 5 min). The culture medium was discarded, and the cells were resuspended in freestyle medium, centrifuged again, collected, and counted. The cells were then diluted to a cell density of 5 x 10^5 cells/mL and then added to the detection wells of a 384-well plate (40 µL/20,000 cells/well). Echo was used to add the corresponding analyte dilution series. The cell plate was incubated at 37°C and 5% CO2 for 6 h, then ONE-GLO (20 µL/well) was added for detection. It was kept in the dark for 3 min, then a chemiluminescent microplate reader was used for determination. The plate was read within 30 min, and the determination results were recorded. […] Table 3: EC50 values for target peptide derivatives

GIPR = target: T2, GIPR (Homo sapiens, UniProt P48546); test: CreLuc method (CRE-luciferase reporter), HEK293/pGM-CREB-L-Luc/GIPR pool; conditions: 6 h incubation, read-out: EC50 (pM) for each receptor GIPR
T2 construct: expressed in transfected cells
T2 sequence (P48546 22-466): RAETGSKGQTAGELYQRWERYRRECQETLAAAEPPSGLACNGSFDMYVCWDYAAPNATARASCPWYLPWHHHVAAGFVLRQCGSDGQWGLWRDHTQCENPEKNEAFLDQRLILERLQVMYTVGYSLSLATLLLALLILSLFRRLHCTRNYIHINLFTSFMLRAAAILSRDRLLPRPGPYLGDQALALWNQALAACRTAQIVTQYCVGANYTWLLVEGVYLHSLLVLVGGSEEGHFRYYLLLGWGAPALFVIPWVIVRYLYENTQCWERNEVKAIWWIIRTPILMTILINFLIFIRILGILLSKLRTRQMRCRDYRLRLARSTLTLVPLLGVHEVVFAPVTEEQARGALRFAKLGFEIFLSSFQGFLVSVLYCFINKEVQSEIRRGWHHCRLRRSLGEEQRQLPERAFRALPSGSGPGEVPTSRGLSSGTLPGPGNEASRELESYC
Description: as §1

GLP-1R = target: T3, GLP-1R (Homo sapiens, UniProt P43220); test: CreLuc method (CRE-luciferase reporter), HEK293/pGM-CREB-L-Luc/GLP-1R pool; conditions: 6 h incubation, read-out: EC50 (pM) for each receptor GLP-1R
T3 construct: expressed in transfected cells
T3 sequence (P43220 24-463, species assumed): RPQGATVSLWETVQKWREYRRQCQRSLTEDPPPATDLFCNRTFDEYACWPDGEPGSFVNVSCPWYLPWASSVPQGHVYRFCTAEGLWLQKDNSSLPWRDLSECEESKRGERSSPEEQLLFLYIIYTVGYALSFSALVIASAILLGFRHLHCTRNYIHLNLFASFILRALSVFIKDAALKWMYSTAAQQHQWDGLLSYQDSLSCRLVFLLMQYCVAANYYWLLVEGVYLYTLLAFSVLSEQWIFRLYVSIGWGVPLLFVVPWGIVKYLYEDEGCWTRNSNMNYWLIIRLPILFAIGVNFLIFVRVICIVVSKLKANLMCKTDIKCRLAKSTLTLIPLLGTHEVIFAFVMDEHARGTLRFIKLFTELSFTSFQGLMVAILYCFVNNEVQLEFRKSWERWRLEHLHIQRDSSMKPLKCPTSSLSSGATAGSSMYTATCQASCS
Description: as §1

`CC[C@H](C)[C@@H]1NC(=O)[C@H](Cc2ccccc2)NC(=O)[C@@H](NC(=O)[C@@H](C)NC(=O)[C@H](CCC(N)=O)NC(=O)[C@H](C)NC(=O)[C@H](CCCCNC(C)=O)NC(=O)[C@H](CCCCN)NC(=O)[C@H](CC(=O)O)NC(=O)[C@H](CC(C)C)NC(=O)[C@](C)(CC(C)C)NC(=O)[C@@H](NC(=O)[C@H](CO)NC(=O)[C@H](Cc2ccc(O)cc2)NC(=O)[C@H](CC(=O)O)NC(=O)[C@H](CO)NC(=O)[C@@H](NC(=O)[C@H](Cc2ccccc2)NC(=O)[C@@H](NC(=O)CNC(=O)[C@H](CCC(N)=O)NC(=O)C(C)(C)NC(=O)[C@@H](N)Cc2ccc(O)cc2)[C@@H](C)O)[C@@H](C)O)[C@@H](C)CC)CSCC(=O)NCCN(C(=O)CCC(=O)NCCOCCOCC(=O)NCCOCCOCC(=O)NCCCC[C@H](NC(=O)CCCCCCCCCCCCCCCCCCC(=O)O)C(=O)O)CCNC(=O)CSC[C@@H](C(=O)NCC(=O)NCC(=O)N2CCC[C@H]2C(=O)N[C@@H](CO)C(=O)N[C@@H](CO)C(=O)NCC(=O)N[C@@H](C)C(=O)N2CCC[C@H]2C(=O)N2CCC[C@H]2C(=O)N2CCC[C@H]2C(=O)N[C@@H](CO)C(N)=O)NC(=O)[C@H](CC(C)C)NC(=O)[C@H](CC(C)C)NC(=O)[C@H](Cc2ccc(O)cc2)NC(=O)[C@H](CCC(=O)O)NC1=O` [TG31] (H-Y[Aib]QGTFTSDYSI[αMeL]LDKK(Ac)AQ[dA]CFIEYLLCGGPSSGAPPPS-NH2; linker 21-28 via X1) gave an EC50 (GCGR) of 440 pM, an EC50 (GIPR) of 11.4 pM and an EC50 (GLP-1R) of 32.7 pM.

`CC[C@H](C)[C@@H]1NC(=O)[C@H](Cc2ccccc2)NC(=O)[C@@H](NC(=O)[C@H](Cc2c[nH]cn2)NC(=O)[C@H](CCC(N)=O)NC(=O)[C@H](C)NC(=O)[C@H](CCCCNC(C)=O)NC(=O)[C@H](CCCCN)NC(=O)[C@H](CC(=O)O)NC(=O)[C@H](CC(C)C)NC(=O)[C@](C)(CC(C)C)NC(=O)[C@@H](NC(=O)[C@H](CO)NC(=O)[C@H](Cc2ccc(O)cc2)NC(=O)[C@H](CC(=O)O)NC(=O)[C@H](CO)NC(=O)[C@@H](NC(=O)[C@H](Cc2ccccc2)NC(=O)[C@@H](NC(=O)CNC(=O)[C@H](CCC(N)=O)NC(=O)C(C)(C)NC(=O)[C@@H](N)Cc2ccc(O)cc2)[C@@H](C)O)[C@@H](C)O)[C@@H](C)CC)CSCC(=O)NCCN(C(=O)CCC(=O)NCCOCCOCC(=O)NCCOCCOCC(=O)NCCCC[C@H](NC(=O)CCCCCCCCCCCCCCCCCCC(=O)O)C(=O)O)CCNC(=O)CSC[C@@H](C(=O)NCC(=O)NCC(=O)N2CCC[C@H]2C(=O)N[C@@H](CO)C(=O)N[C@@H](CO)C(=O)NCC(=O)N[C@@H](C)C(=O)N2CCC[C@H]2C(=O)N2CCC[C@H]2C(=O)N2CCC[C@H]2C(=O)N[C@@H](CO)C(N)=O)NC(=O)[C@H](CC(C)C)NC(=O)[C@H](CC(C)C)NC(=O)[C@H](Cc2ccc(O)cc2)NC(=O)[C@H](CCC(=O)O)NC1=O` [TG32] (H-Y[Aib]QGTFTSDYSI[αMeL]LDKK(Ac)AQHCFIEYLLCGGPSSGAPPPS-NH2; linker 21-28 via X1) was tested, and the EC50 (GCGR) was 197 pM, the EC50 (GIPR) was 11.7 pM and the EC50 (GLP-1R) was 34 pM.

In the case of `CC[C@H](C)[C@@H]1NC(=O)[C@H](Cc2ccccc2)NC(=O)[C@@H](NC(=O)[C@H](CCC(N)=O)NC(=O)[C@H](CCC(N)=O)NC(=O)[C@H](C)NC(=O)[C@H](CCCCNC(C)=O)NC(=O)[C@H](CCCCN)NC(=O)[C@H](CC(=O)O)NC(=O)[C@H](CC(C)C)NC(=O)[C@](C)(CC(C)C)NC(=O)[C@@H](NC(=O)[C@H](CO)NC(=O)[C@H](Cc2ccc(O)cc2)NC(=O)[C@H](CC(=O)O)NC(=O)[C@H](CO)NC(=O)[C@@H](NC(=O)[C@H](Cc2ccccc2)NC(=O)[C@@H](NC(=O)CNC(=O)[C@H](CCC(N)=O)NC(=O)C(C)(C)NC(=O)[C@@H](N)Cc2ccc(O)cc2)[C@@H](C)O)[C@@H](C)O)[C@@H](C)CC)CSCC(=O)NCCN(C(=O)CCC(=O)NCCOCCOCC(=O)NCCOCCOCC(=O)NCCCC[C@H](NC(=O)CCCCCCCCCCCCCCCCCCC(=O)O)C(=O)O)CCNC(=O)CSC[C@@H](C(=O)NCC(=O)NCC(=O)N2CCC[C@H]2C(=O)N[C@@H](CO)C(=O)N[C@@H](CO)C(=O)NCC(=O)N[C@@H](C)C(=O)N2CCC[C@H]2C(=O)N2CCC[C@H]2C(=O)N2CCC[C@H]2C(=O)N[C@@H](CO)C(N)=O)NC(=O)[C@H](CC(C)C)NC(=O)[C@H](CC(C)C)NC(=O)[C@H](Cc2ccc(O)cc2)NC(=O)[C@H](CCC(=O)O)NC1=O` [TG33] (H-Y[Aib]QGTFTSDYSI[αMeL]LDKK(Ac)AQQCFIEYLLCGGPSSGAPPPS-NH2; linker 21-28 via X1), the EC50 (GCGR) was 96.8 pM, the EC50 (GIPR) was 7.6 pM and the EC50 (GLP-1R) was 23.7 pM.

`CC[C@H](C)[C@@H]1NC(=O)[C@H](Cc2ccccc2)NC(=O)[C@@H](NC(=O)C(C)(C)NC(=O)[C@H](CCC(N)=O)NC(=O)[C@H](C)NC(=O)[C@H](CCCNC(=N)N)NC(=O)[C@H](CCCCN)NC(=O)[C@H](CC(=O)O)NC(=O)[C@H](CC(C)C)NC(=O)[C@](C)(CC(C)C)NC(=O)[C@@H](NC(=O)[C@H](CO)NC(=O)[C@H](Cc2ccc(O)cc2)NC(=O)[C@H](CC(=O)O)NC(=O)[C@H](CO)NC(=O)[C@@H](NC(=O)[C@H](Cc2ccccc2)NC(=O)[C@@H](NC(=O)CNC(=O)[C@H](CCC(N)=O)NC(=O)C(C)(C)NC(=O)[C@@H](N)Cc2ccc(O)cc2)[C@@H](C)O)[C@@H](C)O)[C@@H](C)CC)CSCC(=O)NCCN(C(=O)CCC(=O)NCCOCCOCC(=O)NCCOCCOCC(=O)NCCCC[C@H](NC(=O)CCCCCCCCCCCCCCCCCCC(=O)O)C(=O)O)CCNC(=O)CSC[C@@H](C(=O)NCC(=O)NCC(=O)N2CCC[C@H]2C(=O)N[C@@H](CO)C(=O)N[C@@H](CO)C(=O)NCC(=O)N[C@@H](C)C(=O)N2CCC[C@H]2C(=O)N2CCC[C@H]2C(=O)N2CCC[C@H]2C(=O)N[C@@H](CO)C(N)=O)NC(=O)[C@H](CC(C)C)NC(=O)[C@H](CC(C)C)NC(=O)[C@H](Cc2ccc(O)cc2)NC(=O)[C@H](CCC(=O)O)NC1=O` [TG35] showed an EC50 (GCGR) of 273 pM, an EC50 (GIPR) of 15.5 pM and an EC50 (GLP-1R) of 40.1 pM.

In the case of `CC[C@H](C)[C@@H]1NC(=O)[C@H](Cc2ccccc2)NC(=O)[C@@H](NC(=O)C(C)(C)NC(=O)[C@H](CCC(N)=O)NC(=O)[C@H](C)NC(=O)[C@H](CCCCNC(C)=O)NC(=O)[C@H](CCCCN)NC(=O)[C@H](CCC(=O)O)NC(=O)[C@H](CC(C)C)NC(=O)[C@](C)(CC(C)C)NC(=O)[C@@H](NC(=O)[C@H](CO)NC(=O)[C@H](Cc2ccc(O)cc2)NC(=O)[C@H](CC(=O)O)NC(=O)[C@H](CO)NC(=O)[C@@H](NC(=O)[C@H](Cc2ccccc2)NC(=O)[C@@H](NC(=O)CNC(=O)[C@H](CCC(N)=O)NC(=O)C(C)(C)NC(=O)[C@@H](N)Cc2ccc(O)cc2)[C@@H](C)O)[C@@H](C)O)[C@@H](C)CC)CSCC(=O)NCCN(C(=O)CCC(=O)NCCOCCOCC(=O)NCCOCCOCC(=O)NCCCC[C@H](NC(=O)CCCCCCCCCCCCCCCCCCC(=O)O)C(=O)O)CCNC(=O)CSC[C@@H](C(=O)NCC(=O)NCC(=O)N2CCC[C@H]2C(=O)N[C@@H](CO)C(=O)N[C@@H](CO)C(=O)NCC(=O)N[C@@H](C)C(=O)N2CCC[C@H]2C(=O)N2CCC[C@H]2C(=O)N2CCC[C@H]2C(=O)N[C@@H](CO)C(N)=O)NC(=O)[C@H](CC(C)C)NC(=O)[C@H](CC(C)C)NC(=O)[C@H](Cc2ccc(O)cc2)NC(=O)[C@H](CCC(=O)O)NC1=O` [TG36], the EC50 (GCGR) was 813 pM, the EC50 (GIPR) was 10.8 pM and the EC50 (GLP-1R) was 34.1 pM.

With `CC[C@H](C)[C@@H]1NC(=O)[C@H](Cc2ccccc2)NC(=O)[C@@H](NC(=O)C(C)(C)NC(=O)[C@H](CCC(N)=O)NC(=O)[C@H](C)NC(=O)[C@H](CCCCNC(C)=O)NC(=O)[C@H](CCCCN)NC(=O)[C@H](CC(=O)O)NC(=O)[C@H](CC(C)C)NC(=O)[C@](C)(CC(C)C)NC(=O)[C@@H](NC(=O)[C@H](CO)NC(=O)[C@H](Cc2ccncc2)NC(=O)[C@H](CC(=O)O)NC(=O)[C@H](CO)NC(=O)[C@@H](NC(=O)[C@H](Cc2ccccc2)NC(=O)[C@@H](NC(=O)CNC(=O)[C@H](CCC(N)=O)NC(=O)C(C)(C)NC(=O)[C@@H](N)Cc2ccc(O)cc2)[C@@H](C)O)[C@@H](C)O)[C@@H](C)CC)CSCC(=O)NCCN(C(=O)CCC(=O)NCCOCCOCC(=O)NCCOCCOCC(=O)NCCCC[C@H](NC(=O)CCCCCCCCCCCCCCCCCCC(=O)O)C(=O)O)CCNC(=O)CSC[C@@H](C(=O)NCC(=O)NCC(=O)N2CCC[C@H]2C(=O)N[C@@H](CO)C(=O)N[C@@H](CO)C(=O)NCC(=O)N[C@@H](C)C(=O)N2CCC[C@H]2C(=O)N2CCC[C@H]2C(=O)N2CCC[C@H]2C(=O)N[C@@H](CO)C(N)=O)NC(=O)[C@H](CC(C)C)NC(=O)[C@H](CC(C)C)NC(=O)[C@H](Cc2ccc(O)cc2)NC(=O)[C@H](CCC(=O)O)NC1=O` [TG38] the EC50 (GCGR) was 232 pM, the EC50 (GIPR) was 14.5 pM and the EC50 (GLP-1R) was 70.2 pM.
